What is called EC50 is the concentration that produces a half-maximal response. A word on the AC50: it is the concentration giving half of the maximal activity seen. One may read the IC50 as the concentration at which inhibition is half-maximal. One may read the Ki as the dissociation constant of the complex between target and ligand, obtained from inhibition or displacement.

The results in this text go back to ChEMBL document CHEMBL1201862, “PubChem BioAssay data set” (2004).

Assay [1] has as its target T1, High affinity choline transporter 1 (Homo sapiens, UniProt Q9GZV3).
T1 sequence (Q9GZV3 whole entry): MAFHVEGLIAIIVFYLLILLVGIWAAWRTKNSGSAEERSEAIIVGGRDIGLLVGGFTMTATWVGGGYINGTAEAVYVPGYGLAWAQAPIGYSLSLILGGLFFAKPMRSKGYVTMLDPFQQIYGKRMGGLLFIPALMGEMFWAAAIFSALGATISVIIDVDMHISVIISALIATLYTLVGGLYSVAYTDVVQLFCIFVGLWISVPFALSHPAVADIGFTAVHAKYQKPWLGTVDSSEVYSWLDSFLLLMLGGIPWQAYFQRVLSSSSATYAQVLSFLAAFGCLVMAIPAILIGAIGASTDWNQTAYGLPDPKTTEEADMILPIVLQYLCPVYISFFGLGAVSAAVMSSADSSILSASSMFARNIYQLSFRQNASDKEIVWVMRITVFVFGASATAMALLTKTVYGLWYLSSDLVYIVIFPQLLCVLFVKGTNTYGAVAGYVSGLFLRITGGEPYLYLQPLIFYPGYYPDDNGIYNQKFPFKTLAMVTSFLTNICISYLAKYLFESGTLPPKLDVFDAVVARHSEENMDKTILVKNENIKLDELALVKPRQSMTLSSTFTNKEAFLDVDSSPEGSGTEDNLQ
Kind of assay: CHT activators, dose response, cell-based, 10-point CRC, membrane potential dye (AID 602376). The format is functional.

In the next assay the test system is INS1. The assay can be described thus: inhibitors of cytokine-induced nitrite release, dose response, cell-based, Griess absorbance, INS-1E, dry powder, set 2 (AID 488868). Format: functional. To be noted: Rattus norvegicus.
For a further assay, the system named is CHO. The assay can be described thus: cytotoxicity in TLR9-MyD88 CHO cells, dose response, cytotoxicity control for TLR9-MyD88 binding inhibitor project, cell-based, luminescence (AID 588339).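 Note: CHO cells stably coexpressing TLR9 and MyD88 fusions from primary screen; compound exposure lasted 48 hours before viability readout.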 The format is functional, hamster. The settings on record: Cricetulus griseus.
A further assay addresses T2, Protein RecA (Mycobacterium tuberculosis, UniProt P9WHJ3).
T2 sequence (P9WHJ3 whole entry): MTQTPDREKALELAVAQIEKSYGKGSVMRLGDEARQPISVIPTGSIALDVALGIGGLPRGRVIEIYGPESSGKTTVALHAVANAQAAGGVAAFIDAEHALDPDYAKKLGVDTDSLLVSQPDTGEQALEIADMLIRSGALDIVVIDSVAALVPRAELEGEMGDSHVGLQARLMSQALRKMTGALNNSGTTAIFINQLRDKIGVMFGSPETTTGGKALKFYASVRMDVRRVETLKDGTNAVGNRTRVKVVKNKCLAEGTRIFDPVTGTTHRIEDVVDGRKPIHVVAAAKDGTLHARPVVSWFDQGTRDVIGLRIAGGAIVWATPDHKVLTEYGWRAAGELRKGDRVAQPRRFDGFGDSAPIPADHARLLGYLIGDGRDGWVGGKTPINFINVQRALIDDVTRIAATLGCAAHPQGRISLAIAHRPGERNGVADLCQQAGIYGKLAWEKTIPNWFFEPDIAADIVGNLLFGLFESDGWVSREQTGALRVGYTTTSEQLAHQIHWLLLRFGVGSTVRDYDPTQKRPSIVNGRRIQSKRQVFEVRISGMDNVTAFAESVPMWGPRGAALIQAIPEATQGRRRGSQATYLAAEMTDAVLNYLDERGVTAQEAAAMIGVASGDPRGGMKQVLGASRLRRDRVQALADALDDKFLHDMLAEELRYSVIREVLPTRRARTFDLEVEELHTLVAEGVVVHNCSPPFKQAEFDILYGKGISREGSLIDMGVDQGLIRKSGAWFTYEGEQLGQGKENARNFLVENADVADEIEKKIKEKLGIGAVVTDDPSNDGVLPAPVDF
Kind of assay: Fluorescence Cell-Free Homogeneous Dose Retest to Identify Inhibitors of RecA-Intein Splicing Activity. [Related pubchem assays (depositor defined):AID2097, AID2223, AID489010, AID492950]. Format: functional.

The nature of assay [2]: Shn3 3'UTR reporter inhibitors, dose response, cell-based, Clone20 osteoblasts, firefly luciferase, cherry-picked (AID 624132).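 Note: firefly luciferase luminescence from reporter carrying the Shn3 3'UTR in osteoblasts.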 The format is functional.
Assay [3] concerns the target T3, Replicative DNA helicase DnaB (Mycobacterium tuberculosis, UniProt P9WMR3).
T3 sequence (P9WMR3 whole entry): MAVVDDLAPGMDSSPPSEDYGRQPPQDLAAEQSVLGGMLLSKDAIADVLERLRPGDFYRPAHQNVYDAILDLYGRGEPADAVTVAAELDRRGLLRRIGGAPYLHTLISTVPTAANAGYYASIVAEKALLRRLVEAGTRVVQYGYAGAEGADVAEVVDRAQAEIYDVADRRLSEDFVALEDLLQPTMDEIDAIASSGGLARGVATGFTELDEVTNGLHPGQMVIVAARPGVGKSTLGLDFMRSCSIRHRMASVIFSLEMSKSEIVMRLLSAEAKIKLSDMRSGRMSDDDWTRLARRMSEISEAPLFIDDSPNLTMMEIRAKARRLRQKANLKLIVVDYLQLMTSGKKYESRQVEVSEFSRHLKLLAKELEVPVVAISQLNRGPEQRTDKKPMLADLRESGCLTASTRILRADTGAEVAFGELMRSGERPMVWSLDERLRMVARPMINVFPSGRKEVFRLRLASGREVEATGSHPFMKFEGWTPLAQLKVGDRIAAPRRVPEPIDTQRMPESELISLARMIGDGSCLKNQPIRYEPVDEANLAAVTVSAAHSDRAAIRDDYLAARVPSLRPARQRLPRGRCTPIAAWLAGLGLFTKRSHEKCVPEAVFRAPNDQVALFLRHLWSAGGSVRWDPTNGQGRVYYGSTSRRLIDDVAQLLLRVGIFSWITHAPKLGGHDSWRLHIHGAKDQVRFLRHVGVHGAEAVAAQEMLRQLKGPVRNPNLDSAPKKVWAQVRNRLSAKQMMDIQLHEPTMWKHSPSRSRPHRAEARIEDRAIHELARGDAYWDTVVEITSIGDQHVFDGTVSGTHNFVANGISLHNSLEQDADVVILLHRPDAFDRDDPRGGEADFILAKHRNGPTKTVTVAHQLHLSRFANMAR
The assay can be described thus: DnaB intein splicing inhibitors, dose response, biochemical, cell-free fluorescence (AID 449749). The format is functional.

Assay [4] in a line: control 3'UTR Renilla luciferase suppression, dose response, counter-screen for Shn3 inhibitor project, cell-based, Clone20-Shn3RL, cherry-picked (AID 624133). Format: functional. (Counterscreens check selectivity or assay interference.)
Assay [5] is described as follows: HepG2 cell cytotoxicity, dose response, cytotoxicity control for Shn3 inhibitor project, CellTiter-Glo, cherry-picked (AID 624134). Format: functional, cell-based. Background: In ATP-based viability assays light output follows the ATP content of the culture.
Assay [6] addresses T1, High affinity choline transporter 1. Kind of assay: CHT inhibitors, dose response, cell-based, 5-point CRC, membrane potential dye (AID 504840). The format is functional.
A further assay concerns the target Beta Lactamase (Pseudomonas aeruginosa, UniProt Q932Y6). Kind of assay: beta-lactamase reporter inhibitor potency, dose response, artefact control for TLR9-MyD88 binding inhibitor project, BLA reporter cells, FRET fluorescence (AID 588341).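 Note: cell based assay in CHO-K1 cells stably expressing beta-lactamase.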 Format: cell-based.
The target of assay [7] is Melanin-concentrating hormone receptor 1 (Homo sapiens, UniProt Q99705). The assay can be described thus: Late-stage fluorescence-based counterscreen for antagonists of the G-protein coupled receptor 7 (GPR7): cell-based dose response assay to identify antagonists of the melanin-concentrating hormone receptor 1 (MCHR1) Set 6. Format: functional.
Assay [8] deals with T4, Neuropeptides B/W receptor type 1 (Homo sapiens, UniProt P48145).
T4 sequence (P48145 whole entry): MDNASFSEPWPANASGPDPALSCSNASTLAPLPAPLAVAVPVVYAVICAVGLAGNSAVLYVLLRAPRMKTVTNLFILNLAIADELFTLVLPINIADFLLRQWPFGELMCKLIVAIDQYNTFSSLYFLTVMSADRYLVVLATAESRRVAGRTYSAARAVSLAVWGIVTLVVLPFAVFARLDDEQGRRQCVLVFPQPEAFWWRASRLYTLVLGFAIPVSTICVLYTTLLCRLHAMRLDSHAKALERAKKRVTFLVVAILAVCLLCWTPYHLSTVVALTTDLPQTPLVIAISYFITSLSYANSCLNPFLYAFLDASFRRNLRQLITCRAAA
The assay can be described thus: GPR7 antagonist potency, late-stage follow-up, cell-based, fluorescence, dose response, set 6 (AID 588583). Format: functional.

In assay [9] the target is Calcium/calmodulin-dependent protein kinase type II subunit beta (Homo sapiens, UniProt Q13554). The format is functional.
The target of assay [10] is RAC-alpha serine/threonine-protein kinase (Homo sapiens, UniProt P31749). The format is functional.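 Note: AKT1 affinity measured as one member of a kinome-wide kinase profiling panel.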
Assay [11] has as its target Casein kinase I isoform delta (Homo sapiens, UniProt P48730). The format is functional.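 Note: measured as one member (CSNK1D) of a kinome panel.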
Assay [12] addresses Dual specificity tyrosine-phosphorylation-regulated kinase 1B (Homo sapiens, UniProt Q9Y463). The assay can be described thus: Navigating the Kinome. Panel member name: DYRK1B. The format is functional.
Assay [13] concerns the target cGMP-dependent protein kinase 1 (Homo sapiens, UniProt Q13976). Format: functional.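 Note: value from a kinome panel screen with PRKG1 as the panel member.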
The target in assay [14] is Serine/threonine-protein kinase D2 (Homo sapiens, UniProt Q9BZL6). The format is functional.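 Note: measured against PRKD2 as one member of a kinome-wide kinase profiling panel.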
Assay [15] has as its target Protein kinase C gamma type (Homo sapiens, UniProt P05129). The format is functional.
Assay [16] addresses Protein kinase C iota type (Homo sapiens, UniProt P41743). Format: functional.
Assay [17] deals with Serine/threonine-protein kinase pim-1 (Homo sapiens, UniProt P11309). The format is functional.
For assay [18], the target named is RAC-gamma serine/threonine-protein kinase (Homo sapiens, UniProt Q9Y243). The format is functional.
The target in assay [19] is Serine/threonine-protein kinase pim-3 (Homo sapiens, UniProt Q86V86). Format: functional.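 Note: value obtained as one member of a broad kinase panel profiling effort.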
Assay [20] concerns the target Casein kinase I isoform alpha (Homo sapiens, UniProt P48729). Format: functional.
Assay [21] deals with T5, cAMP-dependent protein kinase catalytic subunit PRKX (Homo sapiens, UniProt P51817).
T5 sequence (P51817 whole entry): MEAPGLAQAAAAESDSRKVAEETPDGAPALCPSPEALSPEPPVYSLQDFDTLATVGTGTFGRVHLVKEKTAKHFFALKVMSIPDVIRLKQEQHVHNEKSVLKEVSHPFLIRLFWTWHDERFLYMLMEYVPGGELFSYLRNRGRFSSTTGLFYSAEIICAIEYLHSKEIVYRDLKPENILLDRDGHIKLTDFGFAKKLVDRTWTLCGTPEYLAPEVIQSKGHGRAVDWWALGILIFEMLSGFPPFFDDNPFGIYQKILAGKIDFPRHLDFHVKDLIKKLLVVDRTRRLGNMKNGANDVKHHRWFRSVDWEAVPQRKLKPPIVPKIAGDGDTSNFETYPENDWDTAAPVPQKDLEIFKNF
Format: functional.

In assay [22] the target is Mitogen-activated protein kinase 14 (Homo sapiens, UniProt Q16539). Format: functional.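 Note: part of a kinome-wide panel, MAPK14 entry.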
For assay [23], the target named is Serine/threonine-protein kinase pim-2 (Homo sapiens, UniProt Q9P1W9). Format: functional.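 Note: value comes from a broad kinase panel profiling study in which PIM2 was one of the panel members.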
Assay [24] addresses Calcium/calmodulin-dependent protein kinase kinase 2 (Homo sapiens, UniProt Q96RR4). The assay can be described thus: Navigating the Kinome. Panel member name: CAMKK2. Format: functional.
The target in assay [25] is Dual specificity tyrosine-phosphorylation-regulated kinase 4 (Homo sapiens, UniProt Q9NR20). Format: functional.
The target of assay [26] is Homeodomain-interacting protein kinase 2 (Homo sapiens, UniProt Q9H2X6). The format is functional.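 Note: measured within a kinome-wide kinase profiling panel, HIPK2 being one panel member.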
The target of assay [27] is MAP kinase-activated protein kinase 5 (Homo sapiens, UniProt Q8IW41). Format: functional.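 Note: measured as one member of a kinome panel.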
For assay [28], the target named is Cyclin-dependent kinase 9 (Homo sapiens, UniProt P50750). Format: functional.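 Note: value from the CDK9 entry of a kinome-spanning kinase panel.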

Activity calls are given as the source filed them.

Sequence of RAC-gamma serine/threonine-protein kinase (Q9Y243 whole entry): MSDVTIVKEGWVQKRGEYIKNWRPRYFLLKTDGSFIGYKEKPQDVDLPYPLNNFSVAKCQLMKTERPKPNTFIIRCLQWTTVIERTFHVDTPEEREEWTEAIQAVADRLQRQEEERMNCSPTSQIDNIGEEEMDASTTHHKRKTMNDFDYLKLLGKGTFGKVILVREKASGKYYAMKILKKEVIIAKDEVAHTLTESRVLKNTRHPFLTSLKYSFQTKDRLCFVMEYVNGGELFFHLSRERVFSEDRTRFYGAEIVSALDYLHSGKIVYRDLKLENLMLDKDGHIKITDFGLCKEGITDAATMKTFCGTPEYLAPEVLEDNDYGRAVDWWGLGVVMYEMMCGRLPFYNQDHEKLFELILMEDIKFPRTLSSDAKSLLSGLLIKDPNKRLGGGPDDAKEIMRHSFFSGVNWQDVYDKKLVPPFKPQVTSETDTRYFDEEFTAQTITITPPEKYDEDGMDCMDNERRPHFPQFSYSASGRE
Sequence of Melanin-concentrating hormone receptor 1 (Q99705 whole entry): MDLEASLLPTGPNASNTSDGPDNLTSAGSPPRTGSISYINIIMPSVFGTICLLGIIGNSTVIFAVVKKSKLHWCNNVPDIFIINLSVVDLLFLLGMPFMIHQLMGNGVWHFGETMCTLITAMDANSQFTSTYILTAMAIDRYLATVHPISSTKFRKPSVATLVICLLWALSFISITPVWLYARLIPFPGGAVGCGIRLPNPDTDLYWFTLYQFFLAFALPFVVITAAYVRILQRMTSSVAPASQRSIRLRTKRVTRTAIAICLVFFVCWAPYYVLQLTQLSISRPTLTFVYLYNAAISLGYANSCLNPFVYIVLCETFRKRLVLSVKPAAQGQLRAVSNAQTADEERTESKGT
Sequence of RAC-alpha serine/threonine-protein kinase (P31749 whole entry, canonical isoform): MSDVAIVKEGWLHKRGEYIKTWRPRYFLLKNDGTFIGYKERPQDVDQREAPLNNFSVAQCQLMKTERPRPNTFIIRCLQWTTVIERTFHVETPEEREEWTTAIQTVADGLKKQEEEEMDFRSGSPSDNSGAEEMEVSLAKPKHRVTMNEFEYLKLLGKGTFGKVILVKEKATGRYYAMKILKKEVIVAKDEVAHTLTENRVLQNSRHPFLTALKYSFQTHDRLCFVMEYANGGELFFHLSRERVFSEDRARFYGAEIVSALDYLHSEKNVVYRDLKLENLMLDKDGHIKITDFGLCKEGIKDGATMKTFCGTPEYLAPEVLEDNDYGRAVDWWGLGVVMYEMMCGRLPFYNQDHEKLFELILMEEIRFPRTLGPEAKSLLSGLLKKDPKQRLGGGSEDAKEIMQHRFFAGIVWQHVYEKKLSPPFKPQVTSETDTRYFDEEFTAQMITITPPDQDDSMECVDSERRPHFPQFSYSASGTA
Sequence of Homeodomain-interacting protein kinase 2 (Q9H2X6 whole entry): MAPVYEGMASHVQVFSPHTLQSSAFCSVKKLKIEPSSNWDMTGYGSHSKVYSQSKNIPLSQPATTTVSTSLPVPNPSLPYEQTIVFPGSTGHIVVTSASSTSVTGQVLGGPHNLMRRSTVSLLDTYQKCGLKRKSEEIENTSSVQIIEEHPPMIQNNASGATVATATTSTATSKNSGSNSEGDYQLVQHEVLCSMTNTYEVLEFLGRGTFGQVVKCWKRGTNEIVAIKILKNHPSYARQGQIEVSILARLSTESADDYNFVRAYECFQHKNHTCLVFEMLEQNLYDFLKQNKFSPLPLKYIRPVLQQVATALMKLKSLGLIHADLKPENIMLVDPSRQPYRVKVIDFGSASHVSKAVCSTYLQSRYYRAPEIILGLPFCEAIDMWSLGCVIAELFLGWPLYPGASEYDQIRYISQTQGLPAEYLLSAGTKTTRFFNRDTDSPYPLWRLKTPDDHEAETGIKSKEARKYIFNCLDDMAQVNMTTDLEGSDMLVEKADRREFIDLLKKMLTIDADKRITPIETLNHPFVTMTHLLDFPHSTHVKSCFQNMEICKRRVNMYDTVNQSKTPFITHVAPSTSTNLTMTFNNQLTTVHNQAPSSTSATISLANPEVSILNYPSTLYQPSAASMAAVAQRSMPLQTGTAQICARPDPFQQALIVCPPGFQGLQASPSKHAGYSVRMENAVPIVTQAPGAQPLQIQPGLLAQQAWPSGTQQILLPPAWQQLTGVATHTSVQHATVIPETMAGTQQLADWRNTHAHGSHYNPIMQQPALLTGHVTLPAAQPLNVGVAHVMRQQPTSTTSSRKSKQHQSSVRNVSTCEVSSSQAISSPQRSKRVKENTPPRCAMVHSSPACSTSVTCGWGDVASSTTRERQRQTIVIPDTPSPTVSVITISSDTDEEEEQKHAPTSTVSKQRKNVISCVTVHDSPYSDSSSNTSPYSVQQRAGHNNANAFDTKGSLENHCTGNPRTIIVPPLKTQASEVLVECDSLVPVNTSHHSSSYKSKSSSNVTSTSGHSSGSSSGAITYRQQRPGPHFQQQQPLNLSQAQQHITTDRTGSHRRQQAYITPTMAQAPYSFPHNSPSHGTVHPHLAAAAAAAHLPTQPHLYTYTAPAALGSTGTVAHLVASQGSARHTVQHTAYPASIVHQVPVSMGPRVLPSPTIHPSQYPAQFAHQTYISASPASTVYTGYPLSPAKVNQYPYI
Sequence of Protein kinase C iota type (P41743 whole entry): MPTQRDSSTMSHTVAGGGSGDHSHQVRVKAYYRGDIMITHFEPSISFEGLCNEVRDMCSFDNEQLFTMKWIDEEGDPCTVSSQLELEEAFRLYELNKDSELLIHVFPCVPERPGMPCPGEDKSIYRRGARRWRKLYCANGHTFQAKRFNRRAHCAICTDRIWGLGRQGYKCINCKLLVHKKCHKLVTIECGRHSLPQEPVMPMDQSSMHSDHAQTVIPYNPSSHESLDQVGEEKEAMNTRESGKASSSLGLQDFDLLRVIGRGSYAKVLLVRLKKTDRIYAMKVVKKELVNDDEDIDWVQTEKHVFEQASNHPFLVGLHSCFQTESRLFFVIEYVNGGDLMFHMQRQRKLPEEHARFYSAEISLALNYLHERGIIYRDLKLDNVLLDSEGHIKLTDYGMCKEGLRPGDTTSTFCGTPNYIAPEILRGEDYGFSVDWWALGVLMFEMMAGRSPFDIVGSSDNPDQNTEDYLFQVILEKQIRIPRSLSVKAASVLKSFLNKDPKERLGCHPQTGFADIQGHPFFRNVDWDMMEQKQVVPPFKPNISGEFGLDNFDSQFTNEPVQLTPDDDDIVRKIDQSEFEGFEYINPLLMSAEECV
Sequence of Dual specificity tyrosine-phosphorylation-regulated kinase 1B (Q9Y463 whole entry): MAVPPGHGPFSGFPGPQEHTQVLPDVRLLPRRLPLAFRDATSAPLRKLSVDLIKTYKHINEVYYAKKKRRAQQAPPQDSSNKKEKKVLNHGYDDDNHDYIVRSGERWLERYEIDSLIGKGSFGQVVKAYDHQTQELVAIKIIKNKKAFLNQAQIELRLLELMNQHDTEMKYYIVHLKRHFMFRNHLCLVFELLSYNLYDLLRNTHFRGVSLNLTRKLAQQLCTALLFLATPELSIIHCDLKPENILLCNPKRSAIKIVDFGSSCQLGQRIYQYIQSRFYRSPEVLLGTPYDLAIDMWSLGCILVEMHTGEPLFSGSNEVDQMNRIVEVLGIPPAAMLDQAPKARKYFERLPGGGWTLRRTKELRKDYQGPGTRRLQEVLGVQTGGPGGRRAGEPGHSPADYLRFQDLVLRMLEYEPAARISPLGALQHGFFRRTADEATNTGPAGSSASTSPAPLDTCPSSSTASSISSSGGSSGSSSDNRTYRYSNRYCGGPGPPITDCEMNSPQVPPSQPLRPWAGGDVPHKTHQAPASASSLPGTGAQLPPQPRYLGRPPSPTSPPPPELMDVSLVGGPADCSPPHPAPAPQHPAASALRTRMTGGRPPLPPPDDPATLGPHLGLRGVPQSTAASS
Sequence of Cyclin-dependent kinase 9 (P50750 whole entry): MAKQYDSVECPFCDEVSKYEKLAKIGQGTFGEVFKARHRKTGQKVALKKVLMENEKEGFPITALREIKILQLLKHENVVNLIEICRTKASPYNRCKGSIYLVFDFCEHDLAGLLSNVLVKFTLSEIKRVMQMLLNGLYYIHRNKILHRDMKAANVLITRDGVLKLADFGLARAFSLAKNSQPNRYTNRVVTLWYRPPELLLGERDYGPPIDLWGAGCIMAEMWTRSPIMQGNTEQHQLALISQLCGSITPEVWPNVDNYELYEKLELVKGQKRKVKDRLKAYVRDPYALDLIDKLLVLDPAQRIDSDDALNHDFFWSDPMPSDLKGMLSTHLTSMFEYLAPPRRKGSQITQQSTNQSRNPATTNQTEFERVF
Sequence of Mitogen-activated protein kinase 14 (Q16539 whole entry): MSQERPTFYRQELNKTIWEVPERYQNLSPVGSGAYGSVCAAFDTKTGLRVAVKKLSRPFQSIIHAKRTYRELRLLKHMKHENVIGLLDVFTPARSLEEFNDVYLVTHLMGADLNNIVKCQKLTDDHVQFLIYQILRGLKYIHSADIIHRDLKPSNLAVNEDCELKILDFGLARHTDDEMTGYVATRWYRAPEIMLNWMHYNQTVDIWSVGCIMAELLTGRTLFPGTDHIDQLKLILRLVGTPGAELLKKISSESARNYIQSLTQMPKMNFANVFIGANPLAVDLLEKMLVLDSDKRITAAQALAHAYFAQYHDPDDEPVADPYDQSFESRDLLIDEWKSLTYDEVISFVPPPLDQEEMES
Sequence of MAP kinase-activated protein kinase 5 (Q8IW41 whole entry): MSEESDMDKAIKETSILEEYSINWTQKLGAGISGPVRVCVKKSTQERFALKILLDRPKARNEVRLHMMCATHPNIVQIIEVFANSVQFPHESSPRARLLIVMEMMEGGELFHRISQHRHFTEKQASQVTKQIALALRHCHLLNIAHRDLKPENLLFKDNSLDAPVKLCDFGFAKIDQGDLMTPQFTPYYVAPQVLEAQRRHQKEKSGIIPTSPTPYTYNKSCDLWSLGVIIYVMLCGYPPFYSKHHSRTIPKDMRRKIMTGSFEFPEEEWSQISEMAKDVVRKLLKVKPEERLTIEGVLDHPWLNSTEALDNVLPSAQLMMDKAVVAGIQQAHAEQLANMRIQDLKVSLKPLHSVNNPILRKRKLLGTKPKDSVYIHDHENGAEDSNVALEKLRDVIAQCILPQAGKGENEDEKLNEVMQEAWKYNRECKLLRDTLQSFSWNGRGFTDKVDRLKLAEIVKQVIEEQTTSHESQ

With `COc1ccc(N2C(=O)/C(=C\c3ccco3)N=C2SCC(=O)N(C(C)C)C(C)C)cc1Cl`, the EC50 in assay [1] is 17.6 µM (active).

For the compound `C[C@@H]1CN([C@@H](C)CO)C(=O)c2cccc(NC(=O)Nc3cccc4ccccc34)c2O[C@H]1CN(C)S(=O)(=O)c1ccccc1`, the AC50 with INS1 was 36.1 µM (active).

Consider `COc1cccc(NC(=O)c2nc(S(C)(=O)=O)ncc2Cl)c1`, for which the IC50 in the assay with CHO is 5.41 µM (active); in assay [6] it was 14.5 µM (active); at Beta Lactamase it was 8.9 µM (active). At Protein RecA, the EC50 is 6.17 µM (active). The AC50 in assay [2] is 0.834 µM (active); in assay [3] it was 0.111 µM (inconclusive); in [4], 11.5 µM (active); in [5], 22 µM (active).

Consider `N#CC(c1ccc(C(F)(F)F)cc1)c1c(Cl)cnn(Cc2cccc3ccccc23)c1=O` (configuration not stated), for which the concentration for half-maximal inhibition (IC50) in assay [7] and in assay [8] was 0.699 µM (active) each time.

In the case of `COc1cc(Nc2ncc(F)c(Nc3ccc4c(n3)NC(=O)C(C)(C)O4)n2)cc(OC)c1OC` [R-406], the Ki in assay [9] was > 7.94 µM (inactive); in assay [10], > 7.94 µM (inactive); in assay [11], > 7.94 µM (inactive); in assay [12] it was > 2.51 µM (inactive); in assay [13] it was > 2 µM (inactive); in assay [14], 0.631 µM (active). Further, the Ki was 0.251 µM (active) in assay [15]; > 5.01 µM (inactive) in [16]; > 6.31 µM (inactive) in assay [17]; > 10 µM (inactive) in assay [18]; 0.631 µM (active) in assay [19]; > 5.01 µM (inactive) in assay [20]. Also, the Ki in [21] was > 2.51 µM (inactive); in assay [22] it was > 3.98 µM (inactive); in assay [23], > 1.58 µM (inactive); in assay [24] it was > 2.51 µM (inactive); in assay [25] it was 1.58 µM (active); in assay [26] it was 0.2 µM (active). In addition, the Ki in assay [27] and in assay [28] was > 1.58 µM (inactive) throughout.
